Values quoted from earlier work, collected in US9446009B2, “Methods for treating conditions of the nail unit” (Hallux, Inc., priority 2004, dated 2016).
Converted amounts (≈) assume the structure as drawn.

Key:
Conditions in all cases: in vitro
Trichophyton rubrum = tested on: Trichophyton rubrum
Trichophyton tonsurans = tested on: Trichophyton tonsurans
[1] = tested on: Trichophyton mentagrophytes
Trichophyton verrucosum = tested on: Trichophyton verrucosum

Row | SMILES | MIC Ranges (Trichophyton rubrum) | MIC Ranges (Trichophyton tonsurans) | MIC Ranges [1] | MIC Ranges (Trichophyton verrucosum) [µg/mL]
1 | c1ccc(-c2ccc(C(c3ccccc3)n3ccnc3)cc2)cc1 (centres unmarked) [Bifonazole] | <0.016 to 1 µg/mL | ≦0.016-0.5 mcg/ml | 0.125 to 0.25 µg/mL | 8 (≈ 25.8 µM)
2 | OC(Cn1cncn1)(Cn1cncn1)c1ccc(F)cc1F [Fluconazole] | – | 0.25 to 8 µg/mL | 16 to 32 µg/mL | 16 (≈ 52.2 µM)
3 | COC1=CC(=O)C[C@@H](C)[C@]12Oc1c(Cl)c(OC)cc(OC)c1C2=O [Griseofulvin] | 0.016 to 8 µg/mL | 0.5 to 1 µg/mL | 0.016 to 0.125 µg/mL | 1 (≈ 2.83 µM)
4 | Cc1cc(C2CCCCC2)n(O)c(=O)c1 [Ciclopiroxolamine] | <0.03 to 8 µg/mL | 0.125 to 1 µg/mL | 0.5 to 1 µg/mL | 4 (≈ 19.3 µM)

Further lines, results first:

Row | MIC Ranges (Trichophyton rubrum) | MIC Ranges (Trichophyton tonsurans) | MIC Ranges [1] | MIC Ranges (Trichophyton verrucosum) [µg/mL] | SMILES
5 | ≦0.0001-1 ^ mcg/ml | ≦0.001-0.008 mcg/ml | ≦S0.001 mcg/ml | 1 (≈ 3.43 µM) | CN(C/C=C/C#CC(C)(C)C)Cc1cccc2ccccc12 [Terbinafine]
6 | – | 0.016 to 0.125 µg/mL | 0.008 to 4 µg/mL | 4 (≈ 7.53 µM) | CC(=O)N1CCN(c2ccc(OCC3COC(Cn4ccnc4)(c4ccc(Cl)cc4Cl)O3)cc2)CC1 (centres unmarked) [Ketoconazole]
7 | 0.008 to 4 µg/mL | 0.016 to 0.25 µg/mL | 1 µg/mL (≈ 2.4 µM) | 4 (≈ 9.61 µM) | Clc1ccc(COC(Cn2ccnc2)c2ccc(Cl)cc2Cl)c(Cl)c1 (centres unmarked) [Miconazole]
